Measurements reported in ChEMBL document CHEMBL1150022, “O-benzyl hydroxyproline as a bioisostere for Phe-Pro: Novel dipeptide thrombin inhibitors” (Bioorg Med Chem Lett, 1996).
Where a SMILES comes first, the peptide text is derived from it. [ ]: non-standard residue; d: D form. The star is where a group is joined. Hydrocinnamoyl = O=C(CCc1ccccc1)*; Hyp = O=C(O)[C@@H]1C[C@@H](O)CN1; Propionyl = CCC(=O)*; Bn = c1ccc(C*)cc1; Ms = CS(=O)(=O)*; CH2Cl = ClC*

target: Prothrombin (Homo sapiens, UniProt P00734); assay: Inhibition of thrombin

SMILES | IC50
CC(=O)N1C[C@H](OCCC(c2ccccc2)c2ccccc2)C[C@H]1C(=O)N[C@@H](CCCN=C(N)N)C(=O)CCl | 10 nM
CC(=O)N1C[C@H](CCc2ccccc2)C[C@H]1C(=O)N[C@@H](CCCN=C(N)N)C(=O)CCl | 40 nM
CC(=O)N1C[C@H](OCCCc2ccccc2)C[C@H]1C(=O)N[C@@H](CCCN=C(N)N)C(=O)CCl | 14 nM
CC(=O)N1C[C@@H](OCc2ccccc2)C[C@H]1C(=O)N[C@@H](CCCNC(=N)N)C(=O)CCl | 4600 nM
CC(=O)N1C[C@H](OCc2ccccc2)C[C@H]1C(=O)N[C@@H](CCCNC(=N)N)C(=O)CCl | 0.9 nM
N=C(N)NCCC[C@H](NC(=O)[C@@H]1C[C@@H](OCc2ccccc2)CN1C(=O)CCc1ccccc1)C(=O)CCl (Hydrocinnamoyl-[Hyp](Bn)-Arg-CH2Cl) | 31.7 nM

Further molecules by falling IC50, results first:

IC50 | SMILES
8600 nM | CCN1C[C@H](OCc2ccccc2)C[C@H]1C(=O)N[C@@H](CCCNC(=N)N)C(=O)CCl
1350 nM | CC(=O)N1CCC[C@H]1C(=O)N[C@@H](CCCN=C(N)N)C(=O)CCl (Ac-Pro-Arg-CH2Cl)
24 nM | CS(=O)(=O)N1C[C@H](OCc2ccccc2)C[C@H]1C(=O)N[C@@H](CCCNC(=N)N)C(=O)CCl (Ms-[Hyp](Bn)-Arg-CH2Cl)
21.6 nM | CCCCO[C@@H]1C[C@@H](C(=O)N[C@@H](CCCNC(=N)N)C(=O)CCl)N(C(C)=O)C1
13 nM | CCC(=O)N1C[C@H](OCc2ccccc2)C[C@H]1C(=O)N[C@@H](CCCN=C(N)N)C(=O)CCl (Propionyl-[Hyp](Bn)-Arg-CH2Cl)
7.2 nM | N=C(N)NCCC[C@H](NC(=O)[C@@H]1C[C@H](OCc2ccccc2)CN1C(=O)[C@H](N)Cc1ccccc1)C(=O)CCl
4.9 nM | CC(=O)N1C[C@H](OCC2CCCCC2)C[C@H]1C(=O)N[C@@H](CCCN=C(N)N)C(=O)CCl
3 nM | NC(N)=NCCC[C@H](NC(=O)[C@@H]1C[C@@H](OCc2ccccc2)CN1C(=O)[C@H](N)Cc1ccccc1)C(=O)CCl
1.5 nM | N=C(N)NCCC[C@H](NC(=O)[C@@H]1CCCN1C(=O)[C@H](N)Cc1ccccc1)C(=O)CCl
